In ChEMBL document CHEMBL4000197, “Design, synthesis, biological evaluation, and molecular docking of chalcone derivatives as anti-inflammatory agents” (Bioorg Med Chem Lett, 2017):

Legend:
Mus musculus [1] = test: Anti-inflammatory activity in para-xylene-induced Kunming mouse ear-swelling model assessed as inhibition of ear swelling at 40 mg/kg, ig measured after 1 hr relative to control; type: functional; conditions: po
RAW264.7 [2] = test: Anti-inflammatory activity in mouse RAW264.7 cells assessed as inhibition of LPS-induced IL-6 production pretreated for 2 hrs followed by LPS challenge measured after 22 hrs by ELISA; type: functional, cell-based
RAW264.7 [3] = test: Anti-inflammatory activity in mouse RAW264.7 cells assessed as inhibition of LPS-induced TNF-alpha production pretreated for 2 hrs followed by LPS challenge measured after 22 hrs by ELISA; type: functional, cell-based
RAW264.7 [4] = test: Cytotoxicity against mouse RAW264.7 cells at < 50 uM by MTT assay; type: cell-based
Mus musculus [5] = test: Anti-inflammatory activity in para-xylene-induced Kunming mouse ear-swelling model assessed as inhibition of ear swelling at 5 mg/kg, ig measured after 1 hr relative to control; type: functional; conditions: po
Mus musculus [6] = test: Anti-inflammatory activity in para-xylene-induced Kunming mouse ear-swelling model assessed as inhibition of ear swelling at 100 mg/kg, ig measured after 1 hr relative to control; type: functional; conditions: po

| SMILES | inhibition in vivo at 40 mg/kg (Mus musculus [1]) [%] | other results |
| --- | --- | --- |
| COc1cccc(N2CCN(c3ccc(C(=O)/C=C/c4ccc(Cl)cc4)cc3)CC2)c1 | 2.28 | – |
| O=C(/C=C/c1ccccc1)c1ccc(N2CCN(Cc3ccccc3)CC2)cc1 | 17.7 | – |
| COc1ccc(/C=C/C(=O)c2ccc(N3CCN(c4ccc(C)cc4C)CC3)cc2)cc1OC | 48.5 | – |
| COc1ccc(/C=C/C(=O)c2ccc(N3CCN(S(=O)(=O)c4ccc(Br)cc4)CC3)cc2)cc1OC | 75.5 | inhibition (RAW264.7 [2]): Dose-dependent effect; inhibition (RAW264.7 [3]): Dose-dependent effect; Activity (RAW264.7 [4]): Non-Toxic |
| O=C(/C=C/c1ccc(Cl)cc1)c1ccc(N2CCN(S(=O)(=O)c3ccc(Cl)cc3)CC2)cc1 | 56.6 | – |
| O=C(/C=C/c1ccccc1)c1ccc(N2CCN(c3cccc(C(F)(F)F)c3)CC2)cc1 | 25 | – |
| COc1cccc(N2CCN(c3ccc(C(=O)/C=C/c4ccccc4)cc3)CC2)c1 | 16 | – |
| COc1ccc(/C=C/C(=O)c2ccc(N3CCN(c4ccc(Cl)c(Cl)c4)CC3)cc2)cc1OC | 63.5 | – |
| O=C(/C=C/c1ccccc1)c1ccc(N2CCN(S(=O)(=O)c3ccc(Cl)cc3)CC2)cc1 | 46.8 | – |
| O=C(/C=C/c1ccccc1)c1ccc(N2CCN(c3ccc([N+](=O)[O-])cc3)CC2)cc1 | 55.4 | – |
| COc1ccc(N2CCN(c3ccc(C(=O)/C=C/c4ccc(Cl)cc4)cc3)CC2)cc1 | 55.1 | – |
| O=C(/C=C/c1ccccc1)c1ccccc1 [CHALCONE] | 21.7 | – |
| COc1ccc(S(=O)(=O)N2CCN(c3ccc(C(=O)/C=C/c4ccccc4)cc3)CC2)cc1 | 45.2 | – |
| O=C(/C=C/c1ccccc1)c1ccc(N2CCN(S(=O)(=O)c3ccc4ccccc4c3)CC2)cc1 | 35 | – |
| CCCCc1ccc(S(=O)(=O)N2CCN(c3ccc(C(=O)/C=C/c4ccccc4)cc3)CC2)cc1 | 24 | – |
| O=C(/C=C/c1ccccc1)c1ccc(N2CCN(S(=O)(=O)c3ccccc3)CC2)cc1 | 30 | – |
| O=C(/C=C/c1ccccc1)c1ccc(N2CCN(c3cccc(Cl)c3Cl)CC2)cc1 | 30.7 | – |
| Cc1ccc(N2CCN(c3ccc(C(=O)/C=C/c4ccccc4)cc3)CC2)cc1 | 2.85 | – |
| Cc1ccc(-c2cc(C(F)(F)F)nn2-c2ccc(S(N)(=O)=O)cc2)cc1 [CELECOXIB] | – | inhibition in vivo at 5 mg/kg (Mus musculus [5]): 77% |

| SMILES | inhibition in vivo at 40 mg/kg (Mus musculus [1]) [%] | other results |
| --- | --- | --- |
| CC(=O)Oc1ccccc1C(=O)O [ASPIRIN] | – | inhibition in vivo at 100 mg/kg (Mus musculus [6]): 64.9% |
| Cc1cc(C)c(S(=O)(=O)N2CCN(c3ccc(C(=O)/C=C/c4ccccc4)cc3)CC2)c(C)c1 | 55.5 | – |
| Cc1ccc(N2CCN(c3ccc(C(=O)/C=C/c4ccccc4)cc3)CC2)c(C)c1 | 15 | – |
| CC(C)c1cc(C(C)C)c(S(=O)(=O)N2CCN(c3ccc(C(=O)/C=C/c4ccccc4)cc3)CC2)c(C(C)C)c1 | 60.1 | – |
| COc1ccccc1N1CCN(c2ccc(C(=O)/C=C/c3ccc(Cl)cc3)cc2)CC1 | 6.13 | – |
| COc1ccc(S(=O)(=O)N2CCN(c3ccc(C(=O)/C=C/c4ccccc4)cc3)CC2)cc1OC | 55.5 | – |
| COc1ccc(S(=O)(=O)N2CCN(c3ccc(C(=O)/C=C/c4ccc(OC)c(OC)c4)cc3)CC2)cc1 | 64 | – |
| O=C(/C=C/c1ccccc1)c1ccc(N2CCN(c3ccc(Cl)c(Cl)c3)CC2)cc1 | 13.4 | – |
| O=C(/C=C/c1ccccc1)c1ccc(N2CCN(c3cccc(Cl)c3)CC2)cc1 | 14.1 | – |
| O=C(/C=C/c1ccccc1)c1ccc(N2CCN(S(=O)(=O)c3ccc(OC(F)(F)F)cc3)CC2)cc1 | 47.4 | – |
| O=C(/C=C/c1ccc(Cl)cc1)c1ccc(N2CCN(c3cccc(Cl)c3)CC2)cc1 | 5.85 | – |
| Cc1ccc(N2CCN(c3ccc(C(=O)/C=C/c4ccc(Cl)cc4)cc3)CC2)c(C)c1 | 25.7 | – |
| O=C(/C=C/c1ccccc1)c1ccc(N2CCN(c3ccccc3F)CC2)cc1 | 0.57 | – |
| O=C(/C=C/c1ccccc1)c1ccc(N2CCN(c3ccccc3Cl)CC2)cc1 | 4.71 | – |
| O=C(/C=C/c1ccc(Cl)cc1)c1ccc(N2CCN(S(=O)(=O)c3ccc(C(F)(F)F)cc3)CC2)cc1 | 59.6 | – |
| O=C(/C=C/c1ccccc1)c1ccc(N2CCN(c3ccccc3)CC2)cc1 | 3.71 | – |
| O=C(/C=C/c1ccccc1)c1ccc(N2CCN(S(=O)(=O)c3ccc(Br)cc3)CC2)cc1 | 47.4 | – |
| Cc1ccc(S(=O)(=O)N2CCN(c3ccc(C(=O)/C=C/c4ccccc4)cc3)CC2)cc1 | 30.8 | – |
| O=C(/C=C/c1ccccc1)c1ccc(N2CCN(S(=O)(=O)c3ccc(C(F)(F)F)cc3)CC2)cc1 | 47.9 | – |
